Test results reported in PubChem BioAssay AID1963979 (Molecular Pharmacology Branch, DTP, NCI, 2024).

System: 361931-004-R-J1-PDC multicell spheroid viability
Test: Anticancer human tumor 361931-004-R-J1-PDC patient-derived colon adenocarcinoma cell line growth inhibition [PI3K]
Details: for IC50: curve of first compound; for viability, T/C: stronger effect = lower value
Summary of the method: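 Tumor cells grown as multi-cell spheroids with HUVEC endothelial cells and MSC fibroblast-like stroma were treated with targeted agents combined with inavolisib, alpelisib, duvelisib or copanlisib. Doses fell in half-log steps from near clinical Cmax, else from 10 microM. Viability was measured.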

[1] = second compound 0.0316 µM, first compound 0.0316 µM
[2] = second compound 0.0316 µM, first compound 0.1 µM
[3] = second compound 0.0316 µM, first compound 0.316 µM
[4] = second compound 0.0316 µM, first compound 1 µM
[5] = second compound 0.0316 µM, first compound 3.16 µM
[6] = second compound 0.0316 µM, first compound 10 µM
[7] = second compound 0.1 µM, first compound 0.0316 µM
[8] = second compound 0.1 µM, first compound 0.1 µM
[9] = second compound 0.1 µM, first compound 0.316 µM
[10] = second compound 0.1 µM, first compound 1 µM
[11] = second compound 0.1 µM, first compound 3.16 µM
[12] = second compound 0.1 µM, first compound 10 µM
[13] = second compound 0.316 µM, first compound 0.0316 µM
[14] = second compound 0.316 µM, first compound 0.1 µM
[15] = second compound 0.316 µM, first compound 0.316 µM
[16] = second compound 0.316 µM, first compound 1 µM
[17] = second compound 0.316 µM, first compound 3.16 µM
[18] = second compound 0.316 µM, first compound 10 µM
[19] = second compound 1 µM, first compound 0.0316 µM
[20] = second compound 1 µM, first compound 0.1 µM
[21] = second compound 1 µM, first compound 0.316 µM
[22] = second compound 1 µM, first compound 1 µM
[23] = second compound 1 µM, first compound 3.16 µM
[24] = second compound 1 µM, first compound 10 µM
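Note: spheroids exposed to agents for seven days before readout.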

SMILES: C[C@@H](NC(=O)c1ncnc(N)c1Cl)c1ncc(C(=O)Nc2cc(C(F)(F)F)c(Cl)cn2)s1 + CC(Nc1ccc2c(c1)OCCn1cc(N3C(=O)OCC3C(F)F)nc1-2)C(N)=O
- IC50 (second compound 0.00316 µM): > 10 µM
- IC50 (second compound 0.01 µM): > 10 µM
- IC50 (second compound 0.0316 µM): > 10 µM
- IC50 (second compound 0.1 µM): > 10 µM
- IC50 (second compound 0.316 µM): > 10 µM
- IC50 (second compound 1 µM): 5.85 µM
- viability, T/C (second compound 0.00316 µM, first compound 0.0316 µM): 110%
- viability, T/C (second compound 0.00316 µM, first compound 0.1 µM): 102%
- viability, T/C (second compound 0.00316 µM, first compound 0.316 µM): 105%
- viability, T/C (second compound 0.00316 µM, first compound 1 µM): 91.2%
- viability, T/C (second compound 0.00316 µM, first compound 3.16 µM): 96.8%
- viability, T/C (second compound 0.00316 µM, first compound 10 µM): 84.6%
- viability, T/C (second compound 0.01 µM, first compound 0.0316 µM): 110%
- viability, T/C (second compound 0.01 µM, first compound 0.1 µM): 109%
- viability, T/C (second compound 0.01 µM, first compound 0.316 µM): 98%
- viability, T/C (second compound 0.01 µM, first compound 1 µM): 89.6%
- viability, T/C (second compound 0.01 µM, first compound 3.16 µM): 95%
- viability, T/C (second compound 0.01 µM, first compound 10 µM): 75.4%
- viability, T/C [1]: 101%
- viability, T/C [2]: 105%
- viability, T/C [3]: 92.2%
- viability, T/C [4]: 99%
- viability, T/C [5]: 82.4%
- viability, T/C [6]: 73.1%
- viability, T/C [7]: 97.6%
- viability, T/C [8]: 97.1%
- viability, T/C [9]: 92.1%
- viability, T/C [10]: 88.7%
- viability, T/C [11]: 89.1%
- viability, T/C [12]: 59.9%
- viability, T/C [13]: 97.9%
- viability, T/C [14]: 86.8%
- viability, T/C [15]: 75.9%
- viability, T/C [16]: 78.2%
- viability, T/C [17]: 70.5%
- viability, T/C [18]: 47.2%
- viability, T/C [19]: 77.9%
- viability, T/C [20]: 80.2%
- viability, T/C [21]: 73.5%
- viability, T/C [22]: 66%
- viability, T/C [23]: 61.4%
- viability, T/C [24]: 41.5%

SMILES: CC1(C)CCC(CN2CCN(c3ccc(C(=O)NS(=O)(=O)c4ccc(NCC5CCOCC5)c([N+](=O)[O-])c4)c(Oc4cnc5[nH]ccc5c4)c3)CC2)=C(c2ccc(Cl)cc2)C1 + CC(Nc1ncnc2nc[nH]c12)c1cc2cccc(Cl)c2c(=O)n1-c1ccccc1
- IC50 (second compound 0.0316 µM): 5.36 µM
- IC50 (second compound 0.1 µM): 5.02 µM
- IC50 (second compound 0.316 µM): 5.04 µM
- IC50 (second compound 1 µM): 5.15 µM
- IC50 (second compound 3.16 µM): 5.25 µM
- IC50 (second compound 10 µM): 4.96 µM
- viability, T/C [1]: 105%
- viability, T/C [2]: 98.3%
- viability, T/C [3]: 104%
- viability, T/C [4]: 93.4%
- viability, T/C [5]: 89.4%
- viability, T/C [6]: 3.37%
- viability, T/C [7]: 110%
- viability, T/C [8]: 95.2%
- viability, T/C [9]: 97.7%
- viability, T/C [10]: 102%
- viability, T/C [11]: 81.2%
- viability, T/C [12]: 3.38%
- viability, T/C [13]: 108%
- viability, T/C [14]: 97.2%
- viability, T/C [15]: 106%
- viability, T/C [16]: 106%
- viability, T/C [17]: 81.7%
- viability, T/C [18]: 3.3%
- viability, T/C [19]: 103%
- viability, T/C [20]: 99.2%
- viability, T/C [21]: 106%
- viability, T/C [22]: 102%
- viability, T/C [23]: 84%
- viability, T/C [24]: 3.62%
- viability, T/C (second compound 3.16 µM, first compound 0.0316 µM): 102%
- viability, T/C (second compound 3.16 µM, first compound 0.1 µM): 109%
- viability, T/C (second compound 3.16 µM, first compound 0.316 µM): 96%
- viability, T/C (second compound 3.16 µM, first compound 1 µM): 96.5%
- viability, T/C (second compound 3.16 µM, first compound 3.16 µM): 86.8%
- viability, T/C (second compound 3.16 µM, first compound 10 µM): 3.29%
- viability, T/C (second compound 10 µM, first compound 0.0316 µM): 109%
- viability, T/C (second compound 10 µM, first compound 0.1 µM): 99.6%
- viability, T/C (second compound 10 µM, first compound 0.316 µM): 107%
- viability, T/C (second compound 10 µM, first compound 1 µM): 107%
- viability, T/C (second compound 10 µM, first compound 3.16 µM): 80.1%
- viability, T/C (second compound 10 µM, first compound 10 µM): 3.09%
